In US20220409590A1, “CHEMOTHERAPY FOR GLIOMA THROUGH NEURONAL CONVERSION” (The Penn State Research Foundation, priority 2019, published 2022):

Tested on: U251 cells
Assay: Reprogramming of U251 cells; doublecortin immunostaining
Assay type: cell-based, human
Experimental: U251 cells were maintained in minimal essential media (MEM) supplemented with 2 mM glutamine, 1% non-essential amino acids, 1 mM sodium pyruvate, and 10% fetal bovine serum. Fifty thousand cells were seeded on to coverslips into 24-well plates. After 4 days in MEM, the cells were treated with the compound cocktail or dimethyl sulfoxide for another 4 days in Ham's F-12 (F-12) media supplemented with N2, B27 and insulin. The five-compound cocktail, referred to as described above as SLCDS, contained 5 μM SB431542, 0.25 μM LDN193189, 5 μM CHIR99021, 5 μM DAPT, and 40 μM SKL2001. After SLCDS treatment, F-12 media was changed every 4 days for 12 days. Cells were then crosslinked with 4% paraformaldehyde for 12 minutes and washed with Tris buffered saline (TBS). After three 5-minute washes, cells were blocked with 2.5% bovine serum albumin in Tris-buffered saline (TBS) with 0.1% Triton X-100 (TBSTx) for 1 hour. Primary antibody (goat Doublecortin, 1:500 dilution, sc-8066, Santa Cruz) were incubated with fixed cells overnight at 4° C. After three 5-minute washes, the secondary antibody (anti-goat Cy5, 1:1000) was incubated with fixed cells overnight at 4° C. After three 5-minute washes, the cover slip was mounted using mounting media. The fluorescent signal was detected using an ECHO Revolve microscope.

O=C(NCCCn1ccnc1)c1cc(-c2ccco2)on1 [SKL2001]
dose response of doublecortin expression (SKL2001 in combination with SB431542, LDN193189, CHIR99021 and DAPT in U251 cells, FIG. 2): dose-response relationship is established
conversion of U251 glioblastoma cells to neuronal cells (as evidenced by doublecortin expression): efficient conversion
